Experimental findings from US20140094462A1, “SONIC HEDGEHOG MODULATORS” (priority 2009, published 2014) are described below.

In one assay the target is T1, ShhN protein (Homo sapiens, UniProt Q15465).
T1 construct: auto-cleavage of full length Shh into an active 20 kD N-terminal fragment (ShhN); purchased R&D Systems
Briefly: Surface Plasmon Resonance (SPR) protein binding assay on immobilized ShhN. As to conditions: SPR, Biacore T100, ShhN immobilized on CM4 chip, 25° C., compound 0.78 μM-25 μM; read-out: KD. An outline of the steps:
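Binding to immobilized ShhN measured on a Biacore T100 at 25°C. Signals referenced against underivatized control surfaces, with zero-concentration blank cycles included. Solvent correction applied.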

Another assay concerns Gli1. The experiment in a line: Primary keratinocyte cell culture, reduction in Gli mRNA. Format: cell-based. As to conditions: primary human keratinocytes. The protocol: To study the potency of the compounds of the invention in cells, select compounds of the invention were conducted with keratinocytes and the reduction in Gli mRNA was measured. Culturing of primary human keratinocytes was previously described (Nguyen, B. C., et al., Genes & Dev. 20:1028-1042 (2006)). The full thickness skin model, EpiDermFT System (MatTek, Ashland), consisted of normal, human-derived epidermal keratinocytes and normal, human-derived dermal fibroblasts which have been cultured to form a multilayered, highly differentiated model of the human dermis and epidermis. […] Gene expression is compared by quantifying mRNA levels by real time RT-PCR. For this, total RNA preparations […] are used in a reverse transcriptase reaction with a mix of oligonucleotide dT and random hexamer primers, followed by real time PCR with gene-specific primers (Gli1: Qiagen Quantitect PrimerAssay QT00060501; Gli2: Qiagen Quantitect PrimerAssay QT00018648), using an […] real time detection system (Bio-Rad) according to the manufacturer's recommendation, with SYBR Green (Bio-Rad) for detection.

In the next assay the test system is C3H10T1/2. Briefly: Induction of osteogenic differentiation (modulation of osteoblast differentiation). As to conditions: Mus musculus, C3H 10T1/2, read-out: IC50 (nM) C3H10T1/2.

A value given as a limit tells only on which side of the number the result lay.

T1 sequence (Q15465 24-197 limits assumed, species assumed): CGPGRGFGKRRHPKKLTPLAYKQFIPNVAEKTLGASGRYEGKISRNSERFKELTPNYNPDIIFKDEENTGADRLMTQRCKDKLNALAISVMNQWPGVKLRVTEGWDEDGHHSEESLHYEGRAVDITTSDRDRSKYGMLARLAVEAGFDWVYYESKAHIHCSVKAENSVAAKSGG
Text for C3H10T1/2: Using assays previously described in Dwyer et al., J. Biol. Chem. 282, (2007), 8959-68 and Nakamura et al., Biochm. […] Res. Comm., 237 (1997) 465-9, select compounds of the invention were screened for their ability to modulate osteoblast differentiation.

With `N[C@@H]1C/C=C/C[C@@H](CC(=O)NCc2ccc(Cl)cc2)C(=O)NC[C@@H](c2ccccc2)OC1=O` [Example CV, 2-((2R,6S,11R,E)-11-amino-5,12-dioxo-2-phenyl-1-oxa-4-azacyclododec-8-en-6-yl)-N-(4-chlorobenzyl)acetamide], the Kd (usually the equilibrium constant for the complex coming apart) at ShhN protein is under 0.1 µM. Besides, the IC50 is under 0.1 µM in the assay with Gli1 and 100 to 1000 nM with C3H10T1/2.
With `O=C(C[C@@H]1C[C@@H]2O[C@H]2CCC(=O)O[C@H](c2ccccc2)CNC1=O)NCc1ccc(Cl)cc1` [Example BY, N-(4-chlorobenzyl)-2-((1S,6R,10S,12S)-4,9-dioxo-6-phenyl-5,13-dioxa-8-azabicyclo[10.1.0]tridecan-10-yl)acetamide], the Kd at ShhN protein lay in the range of 0.1 to 1 µM. The compound further gave an IC50 in the assay on Gli1 of under 0.1 µM.
Consider `CC(=O)N[C@H]1C/C=C/C[C@@H](CC(=O)NCc2ccc(Cl)cc2)C(=O)N(C)[C@@H](C)[C@@H](c2ccccc2)OC1=O` [Example DM, 2-((2R,3S,6S,11S,E)-11-acetamido-3,4-dimethyl-5,12-dioxo-2-phenyl-1-oxa-4-azacyclododec-8-en-6-yl)-N-(4-chlorobenzyl)acetamide], for which, at ShhN protein, the Kd is under 0.1 µM. In addition, the IC50 in the assay on Gli1 is 0.1 to 1 µM; with C3H10T1/2, 1000 to 100000 nM.
Consider `O=C(C[C@@H]1C[C@H](O)[C@@H](O)CCC(=O)O[C@H](c2ccccc2)CNC1=O)NCc1ccc(Cl)cc1` [Example BZ, N-(4-chlorobenzyl)-2-((2R,6S,8S,9S)-8,9-dihydroxy-5,12-dioxo-2-phenyl-1-oxa-4-azacyclododecan-6-yl)acetamide], for which the Kd on ShhN protein was 1 to 100 µM. The compound further came in with an IC50 in the assay on Gli1 of 0.1 to 1 µM.
Take `O=C(C[C@@H]1C/C=C/CCC(=O)O[C@H](c2ccccc2)CNC1=O)N[C@@H]1CCCc2ccccc21` [Example CR, 2-((2R,6S,E)-5,12-dioxo-2-phenyl-1-oxa-4-azacyclododec-8-en-6-yl)-N—((R)-1,2,3,4-tetrahydronaphthalen-1-yl)acetamide]: the Kd at ShhN protein was under 0.1 µM. Also, the values for the IC50 with Gli1 and in the assay on C3H10T1/2 were under 0.1 µM and under 100 nM, respectively.
In the case of `CCN(CC)CCCNC(=O)C[C@@H]1C/C=C/CCC(=O)O[C@H](c2ccccc2)CNC1=O` [EG], the Kd at ShhN protein is over 100 µM. Further, the IC50 in the assay on Gli1 fell in the range of 1 to 100 µM.
In the case of `O=C1CC/C=C/C[C@@H](CC(=O)N2CCOCC2)C(=O)NC[C@@H](c2ccccc2)O1` [Example DK, (2R,6S,E)-6-(2-morpholino-2-oxoethyl)-2-phenyl-1-oxa-4-azacyclododec-8-ene-5,12-dione], the Kd at ShhN protein was under 0.1 µM. Besides, the results for the IC50 in the assay on Gli1 and in the assay with C3H10T1/2 were 0.1 to 1 µM and 1000 to 100000 nM, respectively.
In the same order, the values of `O=C1CC/C=C/C[C@@H](CC(=O)N2CCCCC2)C(=O)NC[C@@H](c2ccccc2)O1` [Example CQ, (2R,6S,E)-6-(2-oxo-2-(piperidin-1-yl)ethyl)-2-phenyl-1-oxa-4-azacyclododec-8-ene-5,12-dione] are 0.1 to 1 µM, under 0.1 µM and under 100 nM.
Regarding `CN1C(=O)CC/C=C/C[C@@H](CC(=O)NCc2ccc(Cl)cc2)C(=O)OC[C@H]1c1ccccc1` [GH, N-(4-chlorobenzyl)-2-((3R,11S,E)-4-methyl-5,12-dioxo-3-phenyl-1-oxa-4-azacyclododec-8-en-11-yl)acetamide], the Kd on ShhN protein lay within 1 to 100 µM. For the same compound, the IC50 in the assay with Gli1 lay within 1 to 100 µM.
Consider `O=C(C[C@@H]1C/C=C/CCC(=O)O[C@H](c2ccccc2)CNC1=O)NC1CCCc2ccccc21` (stereo partly shown) [ER], for which the Kd on ShhN protein fell in the range of 1 to 100 µM. For the same compound, the IC50 in the assay on Gli1 lay in the range of 0.1 to 1 µM.
For `CCCCN1CCC(CNC(=O)C[C@@H]2C/C=C/CCC(=O)O[C@H](c3ccccc3)CNC2=O)CC1` [EI], the Kd at ShhN protein was over 100 µM. In addition, the IC50 in the assay on Gli1 fell in the range of 1 to 100 µM.
In the same order, the values of `O=C1CC/C=C/CCC(=O)O[C@H](c2ccccc2)CN1` [Example CB, (R,E)-2-phenyl-1-oxa-4-azacyclododec-8-ene-5,12-dione] are over 100 µM and 0.1 to 1 µM.
Turning to `O=C(O)C[C@@H]1C/C=C/CCC(=O)O[C@H](c2ccccc2)CNC1=O` [GC, 2-((2R,6S,E)-5,12-dioxo-2-phenyl-1-oxa-4-azacyclododec-8-en-6-yl)acetic acid], at ShhN protein, the Kd is over 100 µM. In the assay on Gli1, this compound displayed an IC50 of over 100 µM.
